Experimental data published in patent publication US20240158446A1, “CYCLIC COMPOUND HAVING SELECTIVE INHIBITORY ACTION ON KRAS OVER HRAS AND NRAS” (CHUGAI SEIYAKU KABUSHIKI KAISHA, priority 2021, published 2024).
pKd: −log10 of the molar value. *1 amine or outer side, *2 acyl side, *3 side chain or, on linkers, in order; H or OH if unused. Where a SMILES comes first, the peptide text is derived from it. Bridges are numbered along the chain shown (N, C = ends). [ ]: non-standard residue; d: D form. The star is where a group is joined. hPhe(3,5-F2-4-CF3) = N[C@@H](CCc1cc(F)c(C(F)(F)F)c(F)c1)C(=O)O; hPhe(3-Cl-4-CF3) = N[C@@H](CCc1ccc(C(F)(F)F)c(Cl)c1)C(=O)O; NPrPhe(4-CF3) = CCCN[C@@H](Cc1ccc(C(F)(F)F)cc1)C(=O)O; NMeAbu(4,4,4-F3) = CN[C@@H](CC(F)(F)F)C(=O)O; X13 = O=C([C@@H](N[*:1])C1CC(F)(F)C1)[*:2]; NMeGly(cPent) = CN[C@H](C(=O)O)C1CCCC1; Ac4c(3,3-F2) = NC1(C(=O)O)CC(F)(F)C1; X11 = CCC[C@](C)(N[*:1])C(=O)[*:2]; αMeCha = C[C@](N)(CC1CCCCC1)C(=O)O; Nva(3-Et) = CCC(CC)[C@H](N)C(=O)O; αMeI = CC[C@H](C)[C@](C)(N)C(=O)O; Gly(N-propargyl) = C#CCNCC(=O)O; NMeD = CN[C@@H](CC(=O)O)C(=O)O; NMeL = CN[C@@H](CC(C)C)C(=O)O; X50 = O=C(CN(CCF)[*:1])[*:2]; Iva = CC[C@](C)(N)C(=O)O; Morpholide = C1CN(*)CCO1; NAllylGly = C=CCNCC(=O)O; Ac5c = NC1(C(=O)O)CCCC1; Sar = CNCC(=O)O

Columns and labels:
[1] = target: GDP-bound KRAS wild-type protein (Homo sapiens, UniProt P01116); test: Binding to KRAS by surface plasmon resonance (SPR), Single Cycle Kinetics; details: SPR Single Cycle Kinetics, GDP-bound KRAS wild-type protein, 1:1 binding model; read-out: KRAS KD
Chain of GDP-bound KRAS wild-type protein (P01116 whole entry): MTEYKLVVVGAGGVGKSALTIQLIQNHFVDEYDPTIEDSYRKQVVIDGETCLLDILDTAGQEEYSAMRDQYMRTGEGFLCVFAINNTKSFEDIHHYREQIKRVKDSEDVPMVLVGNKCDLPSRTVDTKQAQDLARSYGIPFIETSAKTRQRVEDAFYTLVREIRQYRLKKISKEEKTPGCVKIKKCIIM

[2] = target: GDP-bound NRAS wild-type protein (Homo sapiens, UniProt P01111); test: Binding to NRAS by surface plasmon resonance (SPR), Single Cycle Kinetics; details: SPR, GDP-bound NRAS wild-type protein vs GDP-bound KRAS wild-type protein
Chain of GDP-bound NRAS wild-type protein (P01111 whole entry): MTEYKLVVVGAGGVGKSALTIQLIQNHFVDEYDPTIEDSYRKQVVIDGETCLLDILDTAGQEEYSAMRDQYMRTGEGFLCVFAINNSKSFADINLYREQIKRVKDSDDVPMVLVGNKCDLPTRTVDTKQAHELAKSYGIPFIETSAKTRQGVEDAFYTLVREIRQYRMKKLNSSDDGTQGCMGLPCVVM

[3] = target: GDP-bound HRAS wild-type protein (Homo sapiens, UniProt P01112); test: Binding to HRAS by surface plasmon resonance (SPR), Single Cycle Kinetics; details: SPR, GDP-bound HRAS wild-type protein vs GDP-bound KRAS wild-type protein
Chain of GDP-bound HRAS wild-type protein (P01112 whole entry): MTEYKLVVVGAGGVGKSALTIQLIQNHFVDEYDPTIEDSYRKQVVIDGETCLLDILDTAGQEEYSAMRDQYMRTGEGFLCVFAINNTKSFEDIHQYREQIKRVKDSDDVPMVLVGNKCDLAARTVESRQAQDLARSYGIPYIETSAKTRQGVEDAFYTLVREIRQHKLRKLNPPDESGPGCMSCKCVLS

| Compound | pKd [1] | NRAS/KRAS (ratio of KD value with respect to NRAS to KD value with respect to KRAS) [2] | HRAS/KRAS (ratio of KD value with respect to HRAS to KD value with respect to KRAS) [3] |
| --- | --- | --- | --- |
| CCCN1C(=O)CN(C)C(=O)CN(C)C(=O)[C@H]([C@@H](C)CC)NC(=O)[C@H](CC(C)C)N(C)C(=O)C[C@@H](C(=O)N(C)C)N(C)C(=O)[C@H](C2CCCC2)N(C)C(=O)C2(CC(F)(F)C2)NC(=O)[C@@H]2CCCN2C(=O)[C@H](CCc2cc(F)c(C(F)(F)F)c(F)c2)NC(=O)CN(C)C(=O)[C@@H]1Cc1ccc(C(F)(F)F)cc1 [PP0745] ([NMeL]I[Sar][Sar][NPrPhe(4-CF3)][Sar][hPhe(3,5-F2-4-CF3)]P[Ac4c(3,3-F2)][NMeGly(cPent)][NMeD]-NMe2; lactam N-11) | 10.54 | B (a compound having 3 or more and less than 10 is denoted as B) | C (A compound having a KD ratio of 0.1 or more and less than 3 is denoted as C) |
| CCCN1C(=O)CN(C)C(=O)CN(C)C(=O)[C@H]([C@@H](C)CC)NC(=O)[C@H](CC(C)C)N(C)C(=O)C[C@@H](C(=O)N(C)C)N(C)C(=O)[C@H](CC(F)(F)F)N(C)C(=O)C2(CCCC2)NC(=O)[C@@H]2CCCN2C(=O)[C@H](CCc2cc(F)c(C(F)(F)F)c(F)c2)NC(=O)CN(C)C(=O)[C@@H]1Cc1ccc(C(F)(F)F)cc1 [PP0746] ([NMeL]I[Sar][Sar][NPrPhe(4-CF3)][Sar][hPhe(3,5-F2-4-CF3)]P[Ac5c][NMeAbu(4,4,4-F3)][NMeD]-NMe2; lactam N-11) | 9.37 | B (a compound having 3 or more and less than 10 is denoted as B) | C (A compound having a KD ratio of 0.1 or more and less than 3 is denoted as C) |
| CCCN1C(=O)CN(C)C(=O)CN(C)C(=O)[C@H](C(CC)CC)NC(=O)[C@H](CC(C)C)N(C)C(=O)C[C@@H](C(=O)N(C)C)N(C)C(=O)[C@H](C2CCCC2)N(C)C(=O)C2(CCCC2)NC(=O)[C@@H]2CCCN2C(=O)[C@H](CCc2cc(F)c(C(F)(F)F)c(F)c2)NC(=O)CN(C)C(=O)[C@@H]1Cc1ccc(C(F)(F)F)cc1 [PP0747] ([NMeL][Nva(3-Et)][Sar][Sar][NPrPhe(4-CF3)][Sar][hPhe(3,5-F2-4-CF3)]P[Ac5c][NMeGly(cPent)][NMeD]-NMe2; lactam N-11) | 9.44 | B (a compound having 3 or more and less than 10 is denoted as B) | C (A compound having a KD ratio of 0.1 or more and less than 3 is denoted as C) |
| CCCN1C(=O)CN(C)C(=O)CN(C)C(=O)[C@H](C2CC(F)(F)C2)NC(=O)[C@H](CC(C)C)N(C)C(=O)C[C@@H](C(=O)N(C)C)N(C)C(=O)[C@H](C2CCCC2)N(C)C(=O)C2(CCCC2)NC(=O)[C@@H]2CCCN2C(=O)[C@H](CCc2cc(F)c(C(F)(F)F)c(F)c2)NC(=O)CN(C)C(=O)[C@@H]1Cc1ccc(C(F)(F)F)cc1 [PP0748] ([NMeL][X13][Sar][Sar][NPrPhe(4-CF3)][Sar][hPhe(3,5-F2-4-CF3)]P[Ac5c][NMeGly(cPent)][NMeD]-NMe2; lactam N-11) | 10.10 | B (a compound having 3 or more and less than 10 is denoted as B) | B (a compound having 3 or more and less than 10 is denoted as B) |
| C=CCN1CC(=O)N(C)CC(=O)N(CCC)[C@@H](Cc2ccc(C(F)(F)F)cc2)C(=O)N(C)CC(=O)N[C@@H](CCc2ccc(C(F)(F)F)c(Cl)c2)C(=O)N2CCC[C@H]2C(=O)NC2(CCCC2)C(=O)N(C)[C@@H](C2CCCC2)C(=O)N(C)[C@H](C(=O)N2CCOCC2)CC(=O)N(C)[C@@H](CC(C)C)C(=O)N[C@@H]([C@@H](C)CC)C1=O [PP0749] ([NMeL]I[NAllylGly][Sar][NPrPhe(4-CF3)][Sar][hPhe(3-Cl-4-CF3)]P[Ac5c][NMeGly(cPent)][NMeD]-Morpholide; lactam N-11) | 9.23 | B (a compound having 3 or more and less than 10 is denoted as B) | C (A compound having a KD ratio of 0.1 or more and less than 3 is denoted as C) |
| C#CCN1CC(=O)N(C)CC(=O)N(CCC)[C@@H](Cc2ccc(C(F)(F)F)cc2)C(=O)N(C)CC(=O)N[C@@H](CCc2ccc(C(F)(F)F)c(Cl)c2)C(=O)N2CCC[C@H]2C(=O)NC2(CCCC2)C(=O)N(C)[C@@H](C2CCCC2)C(=O)N(C)[C@H](C(=O)N2CCOCC2)CC(=O)N(C)[C@@H](CC(C)C)C(=O)N[C@@H]([C@@H](C)CC)C1=O [PP0750] ([NMeL]I[Gly(N-propargyl)][Sar][NPrPhe(4-CF3)][Sar][hPhe(3-Cl-4-CF3)]P[Ac5c][NMeGly(cPent)][NMeD]-Morpholide; lactam N-11) | 9.43 | B (a compound having 3 or more and less than 10 is denoted as B) | C (A compound having a KD ratio of 0.1 or more and less than 3 is denoted as C) |
| CCCN1C(=O)CN(C)C(=O)CN(CCF)C(=O)[C@H]([C@@H](C)CC)NC(=O)[C@H](CC(C)C)N(C)C(=O)C[C@@H](C(=O)N2CCOCC2)N(C)C(=O)[C@H](C2CCCC2)N(C)C(=O)C2(CCCC2)NC(=O)[C@@H]2CCCN2C(=O)[C@H](CCc2ccc(C(F)(F)F)c(Cl)c2)NC(=O)CN(C)C(=O)[C@@H]1Cc1ccc(C(F)(F)F)cc1 [PP0751] ([NMeL]I[X50][Sar][NPrPhe(4-CF3)][Sar][hPhe(3-Cl-4-CF3)]P[Ac5c][NMeGly(cPent)][NMeD]-Morpholide; lactam N-11) | 9.28 | B (a compound having 3 or more and less than 10 is denoted as B) | C (A compound having a KD ratio of 0.1 or more and less than 3 is denoted as C) |
| CCCN1C(=O)CN(C)C(=O)CN(C)C(=O)[C@H]([C@@H](C)CC)NC(=O)[C@H](CC(C)C)N(C)C(=O)C[C@@H](C(=O)N2CCOCC2)N(C)C(=O)[C@H](C2CCCC2)N(C)C(=O)C2(CCCC2)NC(=O)[C@@H]2CCCN2C(=O)[C@H](CCc2cc(F)c(C(F)(F)F)c(F)c2)NC(=O)CN(C)C(=O)[C@@H]1Cc1ccc(C(F)(F)F)cc1 [PP0753] ([NMeL]I[Sar][Sar][NPrPhe(4-CF3)][Sar][hPhe(3,5-F2-4-CF3)]P[Ac5c][NMeGly(cPent)][NMeD]-Morpholide; lactam N-11) | 9.85 | B (a compound having 3 or more and less than 10 is denoted as B) | C (A compound having a KD ratio of 0.1 or more and less than 3 is denoted as C) |
| CCCN1C(=O)CN(C)C(=O)CN(C)C(=O)[C@H]([C@@H](C)CC)NC(=O)[C@H](CC(C)C)N(C)C(=O)C[C@@H](C(=O)N2CCOCC2)N(C)C(=O)[C@H](C2CCCC2)N(C)C(=O)[C@](C)(CC)NC(=O)[C@@H]2CCCN2C(=O)[C@H](CCc2cc(F)c(C(F)(F)F)c(F)c2)NC(=O)CN(C)C(=O)[C@@H]1Cc1ccc(C(F)(F)F)cc1 [PP0754] ([NMeL]I[Sar][Sar][NPrPhe(4-CF3)][Sar][hPhe(3,5-F2-4-CF3)]P[Iva][NMeGly(cPent)][NMeD]-Morpholide; lactam N-11) | 9.31 | B (a compound having 3 or more and less than 10 is denoted as B) | C (A compound having a KD ratio of 0.1 or more and less than 3 is denoted as C) |
| CCCN1C(=O)CN(C)C(=O)CN(C)C(=O)[C@H]([C@@H](C)CC)NC(=O)[C@H](CC(C)C)N(C)C(=O)C[C@@H](C(=O)N2CCOCC2)N(C)C(=O)[C@H](C2CCCC2)N(C)C(=O)[C@](C)([C@@H](C)CC)NC(=O)[C@@H]2CCCN2C(=O)[C@H](CCc2cc(F)c(C(F)(F)F)c(F)c2)NC(=O)CN(C)C(=O)[C@@H]1Cc1ccc(C(F)(F)F)cc1 [PP0757] ([NMeL]I[Sar][Sar][NPrPhe(4-CF3)][Sar][hPhe(3,5-F2-4-CF3)]P[αMeI][NMeGly(cPent)][NMeD]-Morpholide; lactam N-11) | 8.40 | B (a compound having 3 or more and less than 10 is denoted as B) | C (A compound having a KD ratio of 0.1 or more and less than 3 is denoted as C) |
| CCCN1C(=O)CN(C)C(=O)CN(C)C(=O)[C@H]([C@@H](C)CC)NC(=O)[C@H](CC(C)C)N(C)C(=O)C[C@@H](C(=O)N2CCOCC2)N(C)C(=O)[C@H](C2CCCC2)N(C)C(=O)[C@](C)(CCC)NC(=O)[C@@H]2CCCN2C(=O)[C@H](CCc2cc(F)c(C(F)(F)F)c(F)c2)NC(=O)CN(C)C(=O)[C@@H]1Cc1ccc(C(F)(F)F)cc1 [PP0758] ([NMeL]I[Sar][Sar][NPrPhe(4-CF3)][Sar][hPhe(3,5-F2-4-CF3)]P[X11][NMeGly(cPent)][NMeD]-Morpholide; lactam N-11) | 8.80 | B (a compound having 3 or more and less than 10 is denoted as B) | C (A compound having a KD ratio of 0.1 or more and less than 3 is denoted as C) |
| CCCN1C(=O)CN(C)C(=O)CN(C)C(=O)[C@H]([C@@H](C)CC)NC(=O)[C@H](CC(C)C)N(C)C(=O)C[C@@H](C(=O)N2CCOCC2)N(C)C(=O)[C@H](C2CCCC2)N(C)C(=O)[C@](C)(CC2CCCCC2)NC(=O)[C@@H]2CCCN2C(=O)[C@H](CCc2cc(F)c(C(F)(F)F)c(F)c2)NC(=O)CN(C)C(=O)[C@@H]1Cc1ccc(C(F)(F)F)cc1 [PP0760] ([NMeL]I[Sar][Sar][NPrPhe(4-CF3)][Sar][hPhe(3,5-F2-4-CF3)]P[αMeCha][NMeGly(cPent)][NMeD]-Morpholide; lactam N-11) | 7.80 | B (a compound having 3 or more and less than 10 is denoted as B) | C (A compound having a KD ratio of 0.1 or more and less than 3 is denoted as C) |
